Experimental data from patent publication US8471035B1, “Two-photon absorbing arylamine-endcapped and dialkylfluorene-bridged benzobisthiazole compounds with high oleophilicity” (The United States of America as represented by the …, priority 2011, dated 2013).

How the values were obtained:
[1] = Solubility in hexane at room temperature (AF-388 series); format: physicochemical; conditions: for solubility in hexane, % wt/vol. / solubility in hexane, % wt/wt: 24° C.; for amount that remained completely dissolved in hexane for months: ambient conditions
[2] = Solubility in toluene at room temperature; format: physicochemical
Excerpt: In addition, these chromophores are found to be even more soluble in aromatic hydrocarbon solvents as indicated by the higher solubilities of AF388-118 (≧29 wt %) and AF388-312 (≧67 wt %) in toluene.

## CC(C)CCCC(C)CCC1(CCC(C)CCCC(C)C)c2cc(-c3nc4cc5sc(-c6ccc7c(c6)C(CCC(C)CCCC(C)C)(CCC(C)CCCC(C)C)c6cc(N(c8ccccc8)c8ccccc8)ccc6-7)nc5cc4s3)ccc2-c2ccc(N(c3ccccc3)c3ccccc3)cc21 (stereo not shown) [AF-388-118]
[1]
  solubility in hexane, % wt/vol.: 0.41 % wt/vol.
  solubility in hexane, % wt/wt: 0.61 % wt/wt
[2]
  concentration of toluene solution that remained homogenous: 0.24 M
  solubility in toluene: ≥ 29 wt %
[2]; 72 hours
  concentration of toluene solution that solidified at room temperature after 72 hours: 0.34 M

## CC(C)CCCC(C)CCCC(C)CCC1(CCC(C)CCCC(C)CCCC(C)C)c2cc(-c3nc4cc5sc(-c6ccc7c(c6)C(CCC(C)CCCC(C)CCCC(C)C)(CCC(C)CCCC(C)CCCC(C)C)c6cc(N(c8ccccc8)c8ccccc8)ccc6-7)nc5cc4s3)ccc2-c2ccc(N(c3ccccc3)c3ccccc3)cc21 (stereo not shown) [AF-388-312, 2,6-Bis[7-(diphenylimino)-9,9-bis(3,7,1′-trimethyldodecylfluoren-2-yl)]-benzobisthiazole]
[1]
  solubility in hexane, % wt/vol.: 20.2 % wt/vol.
  solubility in hexane, % wt/wt: 30.4 % wt/wt
  amount that remained completely dissolved in hexane for months: ≥ 30 wt %
[2]
  concentration of toluene solution that remained homogenous: 0.34 M
  solubility in toluene: ≥ 67 wt %

## CC(C)CCCC(C)CCCC(C)CCCC(C)CCC1(CCC(C)CCCC(C)CCCC(C)CCCC(C)C)c2cc(-c3nc4cc5sc(-c6ccc7c(c6)C(CCC(C)CCCC(C)CCCC(C)CCCC(C)C)(CCC(C)CCCC(C)CCCC(C)CCCC(C)C)c6cc(N(c8ccccc8)c8ccccc8)ccc6-7)nc5cc4s3)ccc2-c2ccc(N(c3ccccc3)c3ccccc3)cc21 (stereo not shown) [AF-388-416, 2,6-Bis[7-(diphenylimino)-9,9-bis(3,7,11,15-tetramethylhexadecyl)fluoren-2-yl]-benzobisthiazole]
[1]
  solubility in hexane, % wt/vol.: 36.3 % wt/vol.
  solubility in hexane, % wt/wt: 51.3 % wt/wt
  amount that remained completely dissolved in hexane for months: ≥ 51 wt %
